Laboratory results from US20220062294A1, “PHARMACEUTICAL COMPOSITIONS OF TETRACYCLIC QUINOLONE ANALOGS AND THEIR SALTS” (Senhwa Biosciences, Inc., priority 2020, published 2022).

Key:
[1] = system: metastatic, recurrent, locally, advanced, or unresectable solid malignancy; test: Pharmacokinetic and dose escalation study in patients with solid malignancy (Example 6); type: in vivo, human
Description: In pharmacokinetic and dose escalation studies, wadult patients with metastatic, recurrent, locally, advanced, or unresectable solid malignancy (patients with histologically and/or cytologically confirmed solid malignancy), who received prior anti-cancer treatment(s) until disease progression, at 10 different dose levels of Compound I were evaluated. Groups 1-7 were administered Compound I intravenously on days 1 and 8 of a 4-week cycle at 50, 100, 150, 200, 250, 325, and 475 mg/m^2 (solid Compound I reconstituted with 5% glucose in sterile water or similar biologically acceptable IV fluid), respectively. Groups 8-10 were administered intravenously on days 1, 8, and 15 of a 4-week cycle at 325, 475, and 650 mg/m^2, respectively. Each patient received each dose over 1 hour by IV infusion on days described above.
18 Patients were diagnosed with metastatic breast cancer.
12 Patients harbored BRCA1 or BRCA2 mutation. From the same group of 12 patients harboring BRCA1 or BRCA2 mutation, 8 patients had breast cancer (FIG. 2). Of the 8 patients, 6 patients harbored BRCA2 mutation and had breast cancer (FIG. 3). In FIGS. 1-3, each bar represents an individual in a treatment Group as indicated by the Group number corresponding to the treatment Groups.

[2] = system: BRCA2 knockout tumor cells; test: Xenograft model, BRCA2 knockout vs isogenic wild type tumor cells; type: in vivo; conditions: BRCA2 knockout tumor cells in a xenograft model, compared with isogenic wild type control cells
normal cells = test: Alamar Blue cell viability assay, overall statement on normal cells; type: cell-based
BRCA1/2 deficient cells = test: Toxicity against BRCA1/2 deficient cell lines; type: cell-based; conditions: cell lines of different genetic backgrounds (colon, breast and ovary), mouse and human
[3] = system: multiple cancer cell lines; test: Alamar Blue cell viability assay, overall statement on cancer cell lines; type: cell-based
Description: The effect of Compound I on cell viability was assessed by Alamar Blue assay of metabolic activity in various cancer cell lines.

SMILES: Cc1cnc(CNC(=O)c2c(=O)c3ccc(N4CCCN(C)CC4)nc3n3c2sc2ccccc23)cn1 [Compound I, 2-(4-Methyl-[1,4]diazepan-1-yl)-5-oxo-5H-7-thia-1,11b-diaza-benzo[c]fluorene-6-carboxylic acid (5-methyl-pyrazin-2-ylmethyl)-amide]
- response to Compound I treatment ([1]; one patient of Group 10 (650 mg/m^2 IV, days 1, 8, 15 of 4-week cycle) with PALB2 mutation and BRCA2 mutation): partial response (PR)
- response to Compound I treatment ([1]; patients with BRCA2 mutation, dose greater than or equal to 150 mg/m^2, IV): tumor shrinkage
- therapeutic index of activity [2]: wide therapeutic index
- activity in normal cells compared with cancer cell lines (normal cells): significantly less active
- toxicity against BRCA1/2 deficient cells (BRCA1/2 deficient cells): specific toxicity
- antiproliferative activity [3]: antiproliferation activity
